Paper PMC6010099, “Synthesis and antitumor activity of novel 2, 3-didithiocarbamate substituted naphthoquinones as inhibitors of pyruvate kinase M2 isoform” (Journal of Enzyme Inhibition and Medicinal Chemistry, 2017)
Read-outs that look alike come from different tables or passages of the source.

Columns and labels:
MCF7 = experiment: MTS cell proliferation assay, MCF7; type: cell-based, human; conditions: MCF7 breast cancer, 48 h, read-out: IC50 ± SD, in vitro cytotoxicity MCF7
Method: (§1) Cell lines were grown with routine culture techniques in RPMI 1640 supplemented with 9% foetal bovine serum at 37 °C in 5% CO2.
(§2) Cells were plated in 96-well plates at a density of 5000 cells per well. Twelve hours after seeding, cells were treated with various concentrations of test compounds for 48 h. Cell viability was assessed with the MTS assay (Promega) according to the manufacturer's instruction.
(§3) To determine the efficiency of 3a-3h as antitumour agents, we assessed the in vitro cytotoxicity of 3a-3h using several different tumour cell lines derived from human colon cancer (HCT116), breast cancer (MCF7), cervical cancer (Hela) and lung cancer (H1299) and mouse melanoma (B16). […] This discrepancy may be due to the different properties of these compounds such as cell penetration that is important in the cellular assay.

B16 = experiment: MTS cell proliferation assay, B16; type: cell-based; conditions: B16 mouse melanoma, 48 h, read-out: IC50 ± SD, in vitro cytotoxicity B16
Method: as §1, §2, §3

HCT116 = experiment: MTS cell proliferation assay, HCT116; type: cell-based, human; conditions: 48 h, read-out: IC50 ± SD, in vitro cytotoxicity HCT116
Method: as §1, §2, §3

H1299 = experiment: MTS cell proliferation assay, H1299; type: cell-based, human; conditions: 48 h, read-out: IC50 ± SD, in vitro cytotoxicity H1299
Method: as §1, §2, §3

PKM2 = target: T1, PKM2 (Homo sapiens, UniProt P14618); experiment: PKM2 activity assay (fluorescent pyruvate kinase-lactate dehydrogenase coupled assay); type: biochemical; conditions: recombinant human PKM2, fluorescent PK-LDH coupled assay; read-out: IC50 ± SD, PKM2 inhibitory activity
T1 construct: His tag (N); made in house; host or cells: Escherichia coli BL21
T1 sequence (P14618 whole entry): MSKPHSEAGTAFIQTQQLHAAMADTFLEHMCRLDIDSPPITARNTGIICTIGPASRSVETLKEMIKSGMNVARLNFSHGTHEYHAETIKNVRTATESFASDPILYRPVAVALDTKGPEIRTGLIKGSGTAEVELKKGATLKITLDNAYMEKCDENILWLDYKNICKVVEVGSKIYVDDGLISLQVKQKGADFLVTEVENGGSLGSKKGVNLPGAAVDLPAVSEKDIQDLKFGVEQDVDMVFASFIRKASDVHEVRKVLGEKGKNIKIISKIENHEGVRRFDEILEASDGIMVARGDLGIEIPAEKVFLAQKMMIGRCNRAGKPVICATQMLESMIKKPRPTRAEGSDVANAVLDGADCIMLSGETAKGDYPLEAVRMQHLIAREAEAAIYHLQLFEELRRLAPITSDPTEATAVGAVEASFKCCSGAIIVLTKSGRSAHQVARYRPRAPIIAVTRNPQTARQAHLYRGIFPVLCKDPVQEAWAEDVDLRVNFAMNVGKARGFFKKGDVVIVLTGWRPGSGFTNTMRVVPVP
Method: Human cDNA for PKM2 was cloned into pET28a^+ with a N-terminal His tag and purified from Escherichia coli strain BL21 (Invitrogen) using Ni-Agarose beads (Qiagen) as described previously.
Pyruvate kinase activity was measured with a fluorescent pyruvate kinase-lactate dehydrogenase coupled assay as previously described.
We first tested the effect of compound 3a-3h on PKM2 activity using a fluorescent PK-LDH coupled assay according to a previously reported method. Shikonin, which is a known inhibitor of PKM2, was used as the positive control. […] The preliminary SAR can be summarised as follows. The amine moiety of target compounds greatly influenced PKM2 inhibitory activity. Introduction of a short chain N, N-dimethylamine reduced the inhibitory activity (3b vs. 3c and 3d). When the n-propyl amine in 3d was replaced by allyl amine (3e), the inhibitory activity was lowered. […] Introduction of a sulphur atom therefore contributed to improvement of PKM2 inhibitory activity.

Hela = experiment: MTS cell proliferation assay, Hela; type: cell-based, human; conditions: Hela cervical cancer, 48 h, read-out: IC50 ± SD, in vitro cytotoxicity Hela
Method: as §1, §2, §3

[1] = test system: HCT116, MCF7, Hela, H1299 and B16 cells; experiment: MTS cell proliferation assay, range over the tumour cell panel; type: cell-based; conditions: range over the five cell lines, read-out: IC50 values against HCT116, MCF7, Hela, H1299 and B16 cells (range over cell lines)
Method: as §1, §2, §3

BEAS-2B cells = experiment: Cytotoxicity in normal BEAS-2B cells; type: cell-based; conditions: normal human bronchial epithelial cells
Method: as §1, §2
To further explore the selectivity of target compounds against cancer cells, we tested the cytotoxicity of representative compound 3f in BEAS-2B cells derived from normal human bronchial epithelial cells.

[2] = Homo sapiens, HCT-116, HCT116 colon cancer
[3] = Homo sapiens, NCI-H1299, H1299 lung cancer

IC50 (PKM2) [nM]	IC50 [1] [nM]	melting point [°C]	SMILES	IC50 (MCF7) [nM]	IC50 (B16) [nM]	IC50 (HCT116; HCT116 colon cancer) [nM]	IC50 (H1299; H1299 lung cancer) [nM]	IC50 (Hela) [nM]	IC50 (MCF7; Homo sapiens) [nM]	IC50 (HCT116; [2]) [nM]	IC50 (H1299; [3]) [nM]	IC50 (Hela; Homo sapiens) [nM]	IC50 (BEAS-2B cells) [nM]
2640 ± 980			O=C1C(CSC(=S)N2CCOCC2)=C(CSC(=S)N2CCOCC2)C(=O)c2ccccc21 [3a, dimorpholine-dithiocarbamic acid 3-dimorpholinethiocarbamoylsulphanylmethyl-1,4-dioxo-1,4-dihydro-naphthalen-2-ylmethyl ester]	340 ± 3	272 ± 10	214 ± 3	331 ± 91	337 ± 54					
> 10000	69 to 122		CN(C)C(=S)SCC1=C(CSC(=S)N(C)C)C(=O)c2ccccc2C1=O [3b, dimethyl-dithiocarbamic acid 3-dimethylthiocarbamoylsulphanylmethyl-1,4-dioxo-1,4-dihydro-naphthalen-2-ylmethyl ester]		104 ± 11				69 ± 9	88 ± 4	109 ± 2	122 ± 17	
2780 ± 970	84 to 251	130 to 131	CCN(CC)C(=S)SCC1=C(CSC(=S)N(CC)CC)C(=O)c2ccccc2C1=O [3c, diethyl-dithiocarbamic acid 3-diethylthiocarbamoylsulphanylmethyl-1,4-dioxo-1,4-dihydro-naphthalen-2-ylmethyl ester]		108 ± 10				84 ± 3	93 ± 2	144 ± 13	251 ± 59	
3080 ± 1230		111 to 112	CCCN(CCC)C(=S)SCC1=C(CSC(=S)N(CCC)CCC)C(=O)c2ccccc2C1=O [3d, dipropyl-dithiocarbamic acid 3-dipropylthiocarbamoylsulphanylmethyl-1,4-dioxo-1,4-dihydro-naphthalen-2-ylmethyl ester]		787 ± 203				> 10000	597 ± 14	830 ± 162	> 10000	
> 10000			C=CCN(CC=C)C(=S)SCC1=C(CSC(=S)N(CC=C)CC=C)C(=O)c2ccccc2C1=O [3e, diallyl-dithiocarbamic acid 3-diallylthiocarbamoylsulphanylmethyl-1,4-dioxo-1,4-dihydro-naphthalen-2-ylmethyl ester]		709 ± 27				1090 ± 421	742 ± 45	1020 ± 111	3460 ± 3190	
1050 ± 170			O=C1C(CSC(=S)N2CCSCC2)=C(CSC(=S)N2CCSCC2)C(=O)c2ccccc21 [3f, dithiamorpholine-dithiocarbamic acid 3-dithiamorpholinethiocarbamoylsulphanylmethyl-1,4-dioxo-1,4-dihydro-naphthalen-2-ylmethyl ester]	194 ± 55	189 ± 6	189 ± 35	206 ± 18	412 ± 18					11500 ± 620
2330 ± 520			O=C1C(CSC(=S)N2CCCC2)=C(CSC(=S)N2CCCC2)C(=O)c2ccccc21 [3g, dipyrrolidine-dithiocarbamic acid 3-dipyrrolidinethiocarbamoylsulphanylmethyl-1,4-dioxo-1,4-dihydro-naphthalen-2-ylmethyl ester]	638 ± 20	159 ± 2	164 ± 3	247 ± 15	298 ± 53					
960 ± 180			O=C1C(CSC(=S)N2CCSC2)=C(CSC(=S)N2CCSC2)C(=O)c2ccccc21 [3h, dithiazolidine-dithiocarbamic acid 3-dithiazolidinethiocarbamoylsulphanylmethyl-1,4-dioxo-1,4-dihydro-naphthalen-2-ylme-thyl ester]	234 ± 45	317 ± 22	374 ± 15	306 ± 8	1130 ± 80					
2950 ± 530			CC1=C(CSC(=S)N2CCCCC2)C(=O)c2ccccc2C1=O [3k, reference compound]										

SMILES	IC50 (PKM2) [nM]	IC50 [1] [nM]	melting point [°C]	IC50 (MCF7) [nM]	IC50 (B16) [nM]	IC50 (HCT116; HCT116 colon cancer) [nM]	IC50 (H1299; H1299 lung cancer) [nM]	IC50 (Hela) [nM]	IC50 (MCF7; Homo sapiens) [nM]	IC50 (HCT116; [2]) [nM]	IC50 (H1299; [3]) [nM]	IC50 (Hela; Homo sapiens) [nM]	IC50 (BEAS-2B cells) [nM]
CC(C)=CC[C@@H](O)C1=CC(=O)c2c(O)ccc(O)c2C1=O [Shikonin, reference compound]	8820 ± 2620				1220 ± 155				2400 ± 346	1060 ± 182	954 ± 186	813 ± 81	
